Laboratory results as given in the supplement of paper PMC10307832.

Key:
Assay in all cases: relative viability (nuclei count vs DMSO), 5 days (fraction); higher = more cells survive
AGI-6780 + Foretinib = compound: O=C(Nc1cccc(C(F)(F)F)c1)Nc1cc(S(=O)(=O)NC2CC2)ccc1-c1ccsc1 [AGI-6780] + COc1cc2c(Oc3ccc(NC(=O)C4(C(=O)Nc5ccc(F)cc5)CC4)cc3F)ccnc2cc1OCCCN1CCOCC1 [Foretinib] (partner 0.25 µM)
How it was run: (§1)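 Cells from lung cancer lines were seeded into 1536-well plates and, one day later, dosed by pin tool. Treatments were either a single drug or a fixed dose of an anchor drug with five library-drug doses (not always all listed) in √10 steps. After 5 days, nuclei were stained in a one-step fixation (final 0.05% Triton X-100, 1% formaldehyde, 1 ug/ml Hoechst) and counted on 4× images, and relative viability is the treated-to-vehicle nuclei ratio, as the median of duplicate plates.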

AGI-6780 + Alpelisib = compound: O=C(Nc1cccc(C(F)(F)F)c1)Nc1cc(S(=O)(=O)NC2CC2)ccc1-c1ccsc1 [AGI-6780] + Cc1nc(NC(=O)N2CCC[C@H]2C(N)=O)sc1-c1ccnc(C(C)(C)C(F)(F)F)c1 [Alpelisib] (partner 2 µM)
How it was run: as §1

AGI-6780 + Pemetrexed = compound: O=C(Nc1cccc(C(F)(F)F)c1)Nc1cc(S(=O)(=O)NC2CC2)ccc1-c1ccsc1 [AGI-6780] + Nc1nc2[nH]cc(CCc3ccc(C(=O)N[C@@H](CCC(=O)O)C(=O)O)cc3)c2c(=O)[nH]1 [Pemetrexed] (partner 0.2 µM)
How it was run: as §1

AGI-6780 + Olaparib = compound: O=C(Nc1cccc(C(F)(F)F)c1)Nc1cc(S(=O)(=O)NC2CC2)ccc1-c1ccsc1 [AGI-6780] + O=C(c1cc(Cc2n[nH]c(=O)c3ccccc23)ccc1F)N1CCN(C(=O)C2CC2)CC1 [Olaparib] (partner 8 µM)
How it was run: as §1

Row | Cell Line | relative viability (AGI-6780 + Foretinib; first compound 0.08 µM) | relative viability (AGI-6780 + Foretinib; first compound 0.253 µM) | relative viability (AGI-6780 + Foretinib; first compound 0.8 µM) | relative viability (AGI-6780 + Foretinib; first compound 2.53 µM) | relative viability (AGI-6780 + Foretinib; first compound 8 µM) | relative viability (AGI-6780 + Alpelisib; first compound 0.08 µM) | relative viability (AGI-6780 + Alpelisib; first compound 0.253 µM) | relative viability (AGI-6780 + Alpelisib; first compound 0.8 µM) | relative viability (AGI-6780 + Alpelisib; first compound 2.53 µM) | relative viability (AGI-6780 + Alpelisib; first compound 8 µM) | relative viability (AGI-6780 + Pemetrexed; first compound 0.08 µM) | relative viability (AGI-6780 + Pemetrexed; first compound 0.253 µM) | relative viability (AGI-6780 + Pemetrexed; first compound 0.8 µM) | relative viability (AGI-6780 + Pemetrexed; first compound 2.53 µM) | relative viability (AGI-6780 + Pemetrexed; first compound 8 µM) | relative viability (AGI-6780 + Olaparib; first compound 0.08 µM) | relative viability (AGI-6780 + Olaparib; first compound 0.253 µM) | relative viability (AGI-6780 + Olaparib; first compound 0.8 µM) | relative viability (AGI-6780 + Olaparib; first compound 2.53 µM) | relative viability (AGI-6780 + Olaparib; first compound 8 µM)
1 | NCI-H358 | 0.631 | 0.688 | 0.647 | 0.573 | 0.79 | 0.896 | 0.906 | 0.835 | 0.63 | 0.721 | 0.145 | 0.182 | 0.148 | 0.173 | 0.166 | 0.692 | 0.64 | 0.834 | 0.452 | 0.636
2 | SK-MES-1 | 0.896 | 1.01 | 0.773 | 0.709 | 0.833 | 0.877 | 0.926 | 0.898 | 0.894 | 0.789 | 0.991 | 0.929 | 0.836 | 0.985 | 0.929 | 0.738 | 0.667 | 0.628 | 0.643 | 0.592
3 | NCI-H1437 | 1.2 | 1.27 | 1.21 | 1.31 | 1.15 | 1.07 | 0.888 | 1.04 | 0.882 | 0.885 | 0.338 | 0.309 | 0.356 | 0.346 | 0.314 | 0.677 | 0.638 | 0.639 | 0.63 | 0.572
4 | HOP-62 | 1.08 | 1.06 | 1.14 | 1.16 | 1.15 | 0.923 | 0.985 | 0.986 | 1.14 | 1.27 | 0.336 | 0.303 | 0.378 | 0.346 | 0.385 | 0.47 | 0.303 | 0.197 | 0.536 | 0.452
5 | HCC-15 | 1.1 | 1.03 | 1.1 | 0.871 | 0.968 | 0.883 | 0.91 | 0.939 | 0.712 | 0.919 | 0.227 | 0.245 | 0.204 | 0.215 | 0.207 | 0.724 | 0.808 | 0.703 | 0.657 | 0.76
6 | NCI-H441 | 1.03 | 1.16 | 1.06 | 0.754 | 0.844 | 0.885 | 0.783 | 0.713 | 0.382 | 0.646 | 0.288 | 0.241 | 0.236 | 0.25 | 0.248 | 0.627 | 0.525 | 0.624 | 0.441 | 0.453
7 | NCI-H2405 | 1.06 | 1.01 | 0.746 | 1.02 | 1 | 0.895 | 0.824 | 0.506 |  | 0.767 |  | 1.05 | 0.902 | 0.975 | 1.05 |  | 0.85 | 0.776 | 0.838 | 0.758
8 | NCI-H1993 | 0.682 | 0.838 | 0.851 | 0.621 | 0.771 | 0.788 | 0.675 | 0.736 | 0.653 | 0.693 | 0.5 | 0.669 | 0.634 |  | 0.542 | 0.831 | 1.11 | 1.13 |  | 1.09
9 | NCI-H596 | 0.978 | 1.01 | 0.788 |  | 1.06 | 0.6 | 0.501 | 0.455 | 0.427 | 0.516 | 0.456 | 0.492 | 0.472 | 0.469 | 0.479 | 0.749 | 0.765 | 0.704 | 0.625 | 0.791
10 | A-427 | 0.991 | 0.951 | 1.15 | 0.825 | 1.19 | 1.06 | 1.02 | 1.09 | 0.902 | 1.06 |  | 0.932 | 1.01 | 0.929 | 0.971 |  | 0.712 | 0.738 | 0.649 | 0.732
11 | LOU-NH91 | 0.946 | 0.908 | 0.961 | 0.93 | 0.893 | 0.743 | 0.699 | 0.685 | 0.646 | 0.721 | 0.402 | 0.395 | 0.382 | 0.389 | 0.429 | 0.942 | 0.887 | 0.94 | 0.912 | 0.89
12 | HCC-366 | 0.857 | 0.951 | 0.96 | 0.881 | 0.828 | 0.589 | 0.442 | 0.441 | 0.278 | 0.417 | 0.177 | 0.174 | 0.157 | 0.259 | 0.168 | 0.369 | 0.38 | 0.364 | 0.258 | 0.426
13 | NCI-H661 | 1.03 | 0.986 | 1.03 | 0.873 | 1.05 | 0.483 | 0.713 | 0.791 | 0.51 | 0.59 | 0.909 | 0.956 | 0.967 | 0.969 | 0.905 | 0.782 | 0.754 | 0.768 | 0.719 | 0.726
14 | CAL-12T | 1 | 1.15 | 1.13 | 1.34 | 1.11 | 1.33 | 1.15 | 1.29 | 1.23 | 1.13 | 1.25 | 1.27 | 1.35 | 1.25 | 1.26 | 0.712 | 0.662 | 0.648 | 0.667 | 0.78
15 | NCI-H1666 | 0.945 | 0.999 | 0.939 | 0.929 | 1.04 | 1.08 | 0.876 | 1.01 |  | 0.927 | 0.9 | 1.02 | 0.847 | 1.02 | 0.863 | 0.703 | 0.714 | 0.734 | 0.766 | 0.75
16 | NCI-H1915 | 1.04 | 1.11 | 1.09 | 1.1 | 1.03 | 1.02 | 0.963 | 1.04 | 0.992 | 1.04 | 0.478 | 0.491 | 0.552 | 0.538 | 0.452 | 0.25 | 0.292 | 0.258 | 0.208 | 0.26
